Literature values in patent US8377484B1, “Tumor encapsulation for prevention and treatment of metastatic cancer disease” (priority 2004, dated 2013).

Tests used:
[1] = test system: human breast cancer cells
[2] = test system: differentiated C2C12 myotubes
[3] = test system: Cultured primary rat Schwann cells

## O=c1c(-c2ccc(O)cc2)coc2cc(O)ccc12 [daidzein]
[1]
  inhibition of cancer cells proliferation: inhibit cancer cells proliferation

## O=c1c(-c2ccc(O)cc2)coc2cc(O)cc(O)c12 [genistein, 5,7,4′-trihydroxyisoflavone]
[2]; cell cultures of differentiated myotubes
  promotion of BM competency: promote BM competency
[3]; cell cultures of glial Schwann cells
  promotion of BM competency: promote BM competency
[1]
  inhibition of cancer cells proliferation: inhibit cancer cells proliferation

## EHS Laminin-1: major BM structural protein, heterotrimeric laminin from mouse EHS
[2]; incubation with 5-10 microg/ml of laminin-1
  time for laminin-based BM to form on myotube surface: ≤ 4 h
[3]; cultured cells in vitro
  concentration able to induce BM assembly: 2 mkg/ml
